Earlier results in patent US11801302B2, “Formulations and uses thereof” (priority 2020, dated 2023).
“Also recorded” adds a separate entry of the source.

Experiments:
[1] = system: skin, prostate, breast, and ovarian cancer; conditions: preclinical models of skin
[2] = system: central benzodiazepine receptor
anxiety = conditions: in vivo
diuresis = conditions: dose-dependent; only when animals were fluid overloaded, not euvolemic
cancer = conditions: in vitro and in vivo
[3] = system: UV-induced hyperpigmentation of the skin; conditions: in vivo
[4] = compared with other vitamin K homologs
bone = conditions: in vivo
wound = conditions: setting of a wound
[5] = system: cholesterol transport-related protein (NPC1L1); conditions: cell model
blood pressure = conditions: in some cases patients no longer needing antihypertensive medications
[6] = system: anger, mitochondrial function; conditions: in vivo
[7] = system: hyperactivity induced by MK-801; conditions: in vivo
HDL and LDL cholesterol = conditions: in vivo
[8] = system: patients who respond with increased carboxylation of osteocalcin; conditions: subset of patients with increased carboxylation of osteocalcin
chronic plaque psoriasis = conditions: topical application
[9] = system: atypical/precancerous stem cells; conditions: used separately or together
[10] = system: inflammatory markers PPARγ and TNFα; conditions: with emu oil; animal model of ulcerative colitis
normal mice = conditions: observed only at a dose of 30 mg/kg in normal mice

Structure (SMILES): O=c1cc(-c2ccc(O)cc2)oc2cc(O)cc(O)c12 [Apigenin]
- antitumor effect [1]: exerts an antitumor effect in preclinical models
- anxiolytic and mild sedative effects when flumazenil is administered first ([2]; benzodiazepine antagonist flumazenil): (PMID 7617761), an effect that is reversible
- effects as central benzodiazepine receptor ligand ([2]; in vivo): ligand with anxiolytic and slight sedative; also recorded: ligand with anxiolytic and mild sedative effects

Structure (SMILES): C=C(C)[C@H]1CC=C(C)CC1 [D-limonene]
- production of IFN-γ, IL-2, TNF-α, IL-4 and IL-13 by CD3(+) CD4(+) T cells; IFN-γ, IL-2, and TNF-α by CD3(+) CD8(+) T cells (T lymphocytes): viability (PMID 23059811) by inhibiting
- anxiolytic properties with flumazenil (anxiety): is NOT reversed by flumazenil, indicating a
- diuretic effect (diuresis): more capable. D-limonene has a mild diuretic

Structure (SMILES): O=C(O)c1cc(O)c(O)c(O)c1 [Gallic Acid]
- inhibitory properties against cancer (cancer): Plant polyphenol with strong inhibitory

Structure (SMILES): CCCCC/C=C\C/C=C\CCCCCCCC(=O)O [Linoleic acid]
- UV-induced hyperpigmentation of the skin [3]: shown to lighten UV-induced

Structure (SMILES): CC(C)=CCC/C(C)=C/CC/C(C)=C/CC/C(C)=C/CC/C(C)=C/CC/C(C)=C/CC/C(C)=C/CC1=C(C)C(=O)c2ccccc2C1=O [MK7]
- bioavailability [4]: higher bioavailability
- half-life [4]: longer half-life
- bone mineral density (bone): other vitamin K homologs. MK7 increases

Structure (SMILES): CCCCCCCC/C=C\CCCCCCCC(=O)O [Oleic acid (OA)]
- thickness of the necrotic tissue layer in the wound (wound): wound healing tissue mass, while decreasing
- expression of cholesterol transport-related protein (NPC1L1) [5]: 2235880). OA has been shown to decrease
- blood pressure (blood pressure): 21181463). OA has been shown to reduce blood
- pain and itch receptors (pain and itch receptors): directly inhibits pain and itch receptors (PMID
- lipophilic penetration of skin cells (skin cells): Oleic acid (OA) enhances lipophilic penetration
- anger [6]: unexpectedly has been shown to decrease anger

Structure (SMILES): O=c1c(O)c(-c2ccc(O)c(O)c2)oc2cc(O)cc(O)c12 [Quercetin]
- hyperactivity induced by NMDA receptor antagonist MK-801 [7]: transmission and alleviates the hyperactivity

Structure (SMILES): CCCCCCCCCCCCCCCCCC(=O)O [Stearic acid]
- “bad” cholesterol LDL (HDL and LDL cholesterol): cholesterol HDL while reducing the “bad”
- “good” cholesterol HDL (HDL and LDL cholesterol): 10945745) and can increase the “good”

Structure (SMILES): CC(C)=CCC/C(C)=C/CC/C(C)=C/CC/C(C)=C/CC/C(C)=C/CC/C(C)=C/CC/C(C)=C/CC1=C(C)C(=O)c2ccccc2C1=O [Vitamin K2 (MK7)]
- body weight, abdominal and visceral fat [8]: reduced body weight, abdominal and visceral

Structure (SMILES): C=C1/C(=C\C=C2/CCC[C@]3(C)[C@@H]([C@H](C)/C=C/[C@@H](O)C4CC4)CC[C@@H]23)C[C@@H](O)C[C@@H]1O [calcipotriene]
- chronic plaque psoriasis (chronic plaque psoriasis): topical application of calcipotriene improves

Structure (SMILES): COc1cc(/C=C/C(=O)CC(=O)/C=C/c2ccc(O)c(OC)c2)ccc1O [curcumin, diferuloylmethane]
- number of atypical/precancerous stem cells [9]: reduced the number of atypical/precancerous stem cells

Structure (SMILES): CC(C)=CCC/C(C)=C/CO [geraniol]
- kidney glycogen content (GLUT2 transporter; compared to diabetic control): release of glucose from the liver; also doubled
- renal glucose output (GLUT2 transporter; compared to diabetic control): kidney glycogen content, doubling renal glucose
- GLUT2 transporter (GLUT2 transporter; geraniol from Cymbopogon martinii): inhibition of GLUT2 transporter by geraniol

Structure (SMILES): CC1(C)[C@@H](O[C@H]2O[C@H](C(=O)O)[C@@H](O)[C@H](O)[C@H]2O[C@@H]2O[C@H](C(=O)O)[C@@H](O)[C@H](O)[C@H]2O)CC[C@]2(C)[C@H]3C(=O)C=C4[C@@H]5C[C@@](C)(C(=O)O)CC[C@]5(C)CC[C@@]4(C)[C@]3(C)CC[C@@H]12 [glycyrrhizin]
- anti-inflammatory effect by modulating PPARγ and TNFα [10]: synergizes with emu oil to exert a stronger anti-

Structure (SMILES): C=C(C)C1CCC(C)(O)C(O)C1 (stereo not drawn) [limonene-1-2-diol]
- production of IFN-γ, IL-2, TNF-α, IL-4 and IL-13 by CD3(+) CD4(+) T cells; IFN-γ, IL-2, and TNF-α by CD3(+) CD8(+) T cells (T lymphocytes): viability (PMID 23059811) by inhibiting

Structure (SMILES): C=C(C)[C@@H]1CC=C(C(=O)O)CC1 [perillic acid]
- production of IFN-γ, IL-2, TNF-α, IL-4 and IL-13 by CD3(+) CD4(+) T cells; IFN-γ, IL-2, and TNF-α by CD3(+) CD8(+) T cells (T lymphocytes): viability (PMID 23059811) by inhibiting

Structure (SMILES): COc1cc(CCC(C)=O)ccc1O [zingerone]
- diuretic effect (normal mice): Oil, zingerone exhibited a mild diuretic effect
